Among the data in ChEMBL document CHEMBL1138996, “Biological evaluation of isothiazoloquinolones containing aromatic heterocycles at the 7-position: In vitro activity of a series of potent antibacterial agents that are effective against methicillin-resistant Staphylococcus aureus” (Bioorg Med Chem Lett, 2006) are MIC, IC50 and CC50 values, retold here.

The structures appear in SMILES notation. In brackets after ≈: the same amount, converted by molar mass.

Assay [1] concerns Escherichia coli. The experiment in a line: Antibacterial activity against Escherichia coli ATCC 25922. It counts as functional.
The test system of assay [2] is Staphylococcus aureus. The experiment in a line: Antibacterial activity against methicillin-resistant Staphylococcus aureus ATCC 700699. It counts as functional.
In assay [3] the test system is Staphylococcus aureus. The experiment in a line: Antibacterial activity against Staphylococcus aureus ATCC 29213. It counts as functional.
Assay [4] deals with DNA topoisomerase 4 subunit A (Staphylococcus aureus, UniProt P0C1U9). The experiment in a line: Inhibitory activity against Staphylococcus aureus ATCC 29213 wild type Topo 4.
The subject of assay [5] is HEp-2. The experiment in a line: Cytotoxicity against Hep2 cell line. It counts as functional. To be noted: Homo sapiens.
The test system of assay [6] is Enterococcus faecalis. The assay can be described thus: Antibacterial activity against Enterococcus faecalis ATCC 29212. It counts as functional.
Assay [7] relates to Stenotrophomonas maltophilia. The assay can be described thus: Antibacterial activity against Stenotrophomonas maltophilia ATCC 13637. In kind it is functional.
In assay [8] the test system is Streptococcus pyogenes. The assay can be described thus: Antibacterial activity against Streptococcus pyogenes ATCC 19615. In kind it is functional.
Assay [9] has as its system Klebsiella pneumoniae. The experiment in a line: Antibacterial activity against Klebsiella pneumoniae ATCC 13883. It counts as functional.
Assay [10] has as its system Salmonella typhimurium. The experiment in a line: Antibacterial activity against Salmonella Typhimurium ATCC 14028. The following applies: Salmonella enterica. In kind it is functional, Salmonella enterica subsp. enterica serovar Typhimurium.
For assay [11], the system named is Haemophilus influenzae. The experiment in a line: Antibacterial activity against Haemophilus influenzae type b ACH-0056. It counts as functional.
The subject of assay [12] is Moraxella catarrhalis. The experiment in a line: Antibacterial activity against Moraxella catarrhalis ATCC 8176. In kind it is functional.
The subject of assay [13] is Enterococcus faecium. The assay can be described thus: Antibacterial activity against Enterococcus faecium ATCC 49032. In kind it is functional.
In assay [14] the test system is Pseudomonas aeruginosa. The experiment in a line: Antibacterial activity against Pseudomonas aeruginosa ATCC 27853. In kind it is functional.
The test system of assay [15] is Streptococcus pneumoniae. The experiment in a line: Antibacterial activity against Streptococcus pneumoniae ATCC 49619. In kind it is functional.

Sequence of DNA topoisomerase 4 subunit A (P0C1U9 whole entry): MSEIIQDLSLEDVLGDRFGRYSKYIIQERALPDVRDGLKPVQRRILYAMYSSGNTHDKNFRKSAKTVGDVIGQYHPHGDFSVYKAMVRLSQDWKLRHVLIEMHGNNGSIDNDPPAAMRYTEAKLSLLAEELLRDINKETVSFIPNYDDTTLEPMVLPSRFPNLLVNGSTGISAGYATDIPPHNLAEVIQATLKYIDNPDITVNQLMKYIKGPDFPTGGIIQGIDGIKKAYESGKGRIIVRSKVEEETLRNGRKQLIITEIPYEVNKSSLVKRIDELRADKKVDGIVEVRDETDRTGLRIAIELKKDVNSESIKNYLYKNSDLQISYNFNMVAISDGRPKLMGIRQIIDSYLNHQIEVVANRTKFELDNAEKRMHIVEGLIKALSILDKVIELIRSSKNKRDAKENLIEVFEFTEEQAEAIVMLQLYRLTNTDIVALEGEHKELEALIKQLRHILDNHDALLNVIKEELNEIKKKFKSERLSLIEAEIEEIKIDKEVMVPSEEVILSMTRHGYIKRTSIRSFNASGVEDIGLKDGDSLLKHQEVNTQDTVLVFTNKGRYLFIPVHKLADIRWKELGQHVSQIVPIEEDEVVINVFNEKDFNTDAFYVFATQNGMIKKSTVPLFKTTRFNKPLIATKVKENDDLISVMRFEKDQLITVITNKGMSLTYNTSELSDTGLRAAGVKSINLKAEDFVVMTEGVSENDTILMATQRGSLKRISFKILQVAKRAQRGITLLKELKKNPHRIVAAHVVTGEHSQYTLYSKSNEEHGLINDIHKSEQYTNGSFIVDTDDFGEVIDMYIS

For the molecule `Cc1ccc(-c2cc3c(cc2F)c(=O)c2c(=O)[nH]sc2n3C2CC2)cn1`, the figures for the MIC in assay [1], in [2] and in assay [3] were 0.037 µg/mL (≈ 0.101 µM), 1 µg/mL (≈ 2.72 µM) and 0.0037 µg/mL (≈ 0.0101 µM), respectively. For the same molecule, the IC50 (as a rule, the concentration needed to halve the response being measured) in [4] is 8.5 µM. Moreover, in assay [5], the CC50 (commonly the concentration giving 50% cytotoxicity) was determined as 31 µM.

As to `Cc1ccc(-c2cc3c(cc2F)c(=O)c2c(=O)[nH]sc2n3C2CC2)nc1`, the MIC in assay [1] is 0.12 µg/mL (≈ 0.327 µM); in assay [2] it was 32 µg/mL (≈ 87.1 µM); in assay [3], 0.044 µg/mL (≈ 0.12 µM). The IC50 in assay [4] came to 14 µM. The CC50 in [5] was 51 µM.

Consider `Cc1ncccc1-c1cc2c(cc1F)c(=O)c1c(=O)[nH]sc1n2C1CC1`, for which the MIC in [1] came out at 0.51 µg/mL (≈ 1.39 µM); in assay [2] it was 1 µg/mL (≈ 2.72 µM); in assay [3], 0.13 µg/mL (≈ 0.354 µM). Besides, half-maximal inhibition in assay [4] (IC50) required 3.5 µM. In assay [5], this molecule returned a CC50 of 12 µM.

As to `O=c1[nH]sc2c1c(=O)c1cc(F)c(-c3cncc(C4CCCCN4)c3)cc1n2C1CC1` (stereo unspecified), the MIC in assay [1] stood at 0.46 µg/mL (≈ 1.05 µM); in assay [2] it was 8 µg/mL (≈ 18.3 µM); in assay [3], 0.12 µg/mL (≈ 0.275 µM). In addition, in assay [4], the IC50 was found to be 5 µM. Besides, in [5], the CC50 worked out at 6 µM.

As for `O=c1[nH]sc2c1c(=O)c1cc(F)c(-c3ccccc3)cc1n2C1CC1`, the MIC was determined as 0.06 µg/mL (≈ 0.17 µM) in assay [1], 16 µg/mL (≈ 45.4 µM) in assay [2] and 0.0035 µg/mL (≈ 0.00993 µM) in assay [3]. In [4], this molecule displayed an IC50 of 6.3 µM. Also, the CC50 in assay [5] is > 100 µM.

In the case of `Cc1ccnc(-c2cc3c(cc2F)c(=O)c2c(=O)[nH]sc2n3C2CC2)c1`, the MIC is 0.25 µg/mL (≈ 0.68 µM) in [1], 32 µg/mL (≈ 87.1 µM) in [2] and 0.06 µg/mL (≈ 0.163 µM) in assay [3]. Besides, in [4], the IC50 amounted to 16 µM. In addition, the CC50 in assay [5] is > 100 µM.

Turning to `O=c1[nH]sc2c1c(=O)c1cc(F)c(-c3ccnc(F)c3)cc1n2C1CC1`, the MIC in assay [1] worked out at 0.059 µg/mL (≈ 0.159 µM); in [2], 1 µg/mL (≈ 2.69 µM); in assay [3] it was 0.0074 µg/mL (≈ 0.0199 µM). Further, inhibition in assay [4] was half-maximal at 19 µM (IC50). Moreover, in assay [5], the CC50 is > 100 µM.

As to `Cc1cc(-c2cc3c(cc2F)c(=O)c2c(=O)[nH]sc2n3C2CC2)cc(C)n1`, the MIC is 0.031 µg/mL (≈ 0.0813 µM) in assay [1], 0.25 µg/mL (≈ 0.655 µM) in assay [2] and 0.0038 µg/mL (≈ 0.00996 µM) in assay [3]. Also, the IC50 in [4] stood at 48 µM. Further, the midpoint of cytotoxicity in assay [5], the CC50, lay at 50 µM.

As to `O=c1[nH]sc2c1c(=O)c1cc(F)c(-c3cccc4ncccc34)cc1n2C1CC1`, the MIC in assay [6] turned out to be 0.125 µg/mL (≈ 0.31 µM); in assay [7] it was 4 µg/mL (≈ 9.91 µM); in assay [1] it was 0.016 µg/mL (≈ 0.0397 µM); in assay [8], 0.25 µg/mL (≈ 0.62 µM); in assay [9], 0.5 µg/mL (≈ 1.24 µM); in assay [10], 0.5 µg/mL (≈ 1.24 µM). In addition, the MIC amounted to 0.028 µg/mL (≈ 0.0694 µM) in assay [11]; 2 µg/mL (≈ 4.96 µM) in assay [2]; 0.0081 µg/mL (≈ 0.0201 µM) in assay [12]; 0.25 µg/mL (≈ 0.62 µM) in assay [13]; 2 µg/mL (≈ 4.96 µM) in assay [14]; 0.061 µg/mL (≈ 0.151 µM) in [15]. In addition, the MIC in [3] was determined as 0.016 µg/mL (≈ 0.0397 µM). The same molecule had an IC50 in [4] of 33 µM.

Turning to `O=c1[nH]sc2c1c(=O)c1cc(F)c(-c3cncnc3)cc1n2C1CC1`, the MIC in assay [1] is 0.12 µg/mL (≈ 0.339 µM); in assay [2] it was 8 µg/mL (≈ 22.6 µM); in [3], 0.025 µg/mL (≈ 0.0705 µM). Besides, half-maximal inhibition in [4] (IC50) was put at 3.3 µM. The midpoint of cytotoxicity in assay [5], the CC50, lay at 18 µM.

As for `COc1ncc(-c2cc3c(cc2F)c(=O)c2c(=O)[nH]sc2n3C2CC2)c(OC)n1`, the MIC in [6] stood at 0.058 µg/mL (≈ 0.14 µM); in assay [7], 2 µg/mL (≈ 4.83 µM); in assay [1], 0.14 µg/mL (≈ 0.338 µM); in assay [8], 0.079 µg/mL (≈ 0.191 µM); in assay [9] it was 0.5 µg/mL (≈ 1.21 µM); in assay [10], 0.125 µg/mL (≈ 0.302 µM). In addition, the MIC in assay [11] was 0.14 µg/mL (≈ 0.338 µM); in assay [2], 1 µg/mL (≈ 2.41 µM); in assay [12] it was 0.021 µg/mL (≈ 0.0507 µM); in assay [13] it was 0.17 µg/mL (≈ 0.41 µM); in [14], > 64 µg/mL; in assay [15], 0.079 µg/mL (≈ 0.191 µM). Besides, the MIC in assay [3] was 0.019 µg/mL (≈ 0.0458 µM). Also, half-maximal inhibition in assay [4] (IC50) was put at 42 µM. In addition, the CC50 in assay [5] was > 100 µM.

As to `O=C(O)c1cn(C2CC2)c2cc(N3CCNCC3)c(F)cc2c1=O` [CIPROFLOXACIN], the MIC was 0.56 µg/mL (≈ 1.69 µM) in assay [6]; 0.28 µg/mL (≈ 0.845 µM) in assay [7]; 0.28 µg/mL (≈ 0.845 µM) in [8]; 0.033 µg/mL (≈ 0.0996 µM) in assay [9]; 0.018 µg/mL (≈ 0.0543 µM) in assay [10]; 0.018 µg/mL (≈ 0.0543 µM) in assay [11]. The MIC in assay [2] worked out at 32 µg/mL (≈ 96.6 µM); in [12] it was 0.033 µg/mL (≈ 0.0996 µM); in assay [13], 2 µg/mL (≈ 6.04 µM); in assay [15], 0.56 µg/mL (≈ 1.69 µM); in [3], 0.22 µg/mL (≈ 0.664 µM). Also, the CC50 in [5] was > 100 µM.

In the case of `COc1c(N2C[C@@H]3CCCN[C@@H]3C2)c(F)cc2c(=O)c(C(=O)O)cn(C3CC3)c12` [MOXIFLOXACIN], the MIC in [6] stood at 0.125 µg/mL (≈ 0.311 µM); in assay [7], 0.031 µg/mL (≈ 0.0772 µM); in [1], 0.013 µg/mL (≈ 0.0324 µM); in assay [8] it was 0.061 µg/mL (≈ 0.152 µM); in assay [9] it was 0.031 µg/mL (≈ 0.0772 µM); in [10], 0.061 µg/mL (≈ 0.152 µM). Besides, the MIC in assay [11] came out at 0.013 µg/mL (≈ 0.0324 µM); in assay [2], 2 µg/mL (≈ 4.98 µM); in assay [12], 0.061 µg/mL (≈ 0.152 µM); in assay [13], 0.125 µg/mL (≈ 0.311 µM); in assay [14], 1 µg/mL (≈ 2.49 µM); in assay [15], 0.125 µg/mL (≈ 0.311 µM). This molecule also yielded an MIC in assay [3] of 0.061 µg/mL (≈ 0.152 µM). The IC50 in assay [4] was 0.8 µM. For the same molecule, the CC50 in assay [5] is > 100 µM.
